# Assay results published in ChEMBL document CHEMBL5500378, “Discovery of 4-benzylpiperazinequinoline BChE inhibitor that suppresses neuroinflammation for the treatment of Alzheimer's disease” (Eur J Med Chem, 2024).
# Active and inactive are the calls of the source. The calls are words filed in the database; no cut-off is given here.
# Assays:
# Mus musculus [1] = assay: Anti-inflammatory activity in ICR mouse model assessed as reduction in trajectory confusion at 10 mg/kg, IG pretreated for 10 days followed by LPS treatment for 4 days by Moris water maze test; format: functional, organism-based; details: time 14.0 day
# PC-12 [2] = assay: Neuroprotective activity against H2O2-induced neuronal damage in rat PC12 cells assessed as increase in cell viability at 20 uM pretreated for 1 hr followed by H2O2 addition measured after 24 hrs by MTT assay relative to control; format: functional; details: time 25 hrs
# Mus musculus [3] = assay: Anti-inflammatory activity in ICR mouse model assessed as reversal of LPS-induced body weight loss at 10 mg/kg, IG pretreated for 10 days followed by LPS treatment for 4 days; format: functional, organism-based; details: time 14.0 day
# [4] = test system: Antioxidant response element; assay: Induction of ARE in human HepG2-ARE-C8 cells incubated for 24 hrs by luciferase based assay; format: cell-based; details: HepG2-ARE-C8, 24 h
# Mus musculus [5] = assay: Neuroprotective activity in ICR mouse model of Amyloid beta(1 to 42)-induced cognitive impairment assessed as decrease in Amyloid beta expression in brain at 10 mg/kg, IG for 12 days by ELISA; format: functional, organism-based; details: time 12.0 day
# PC-12 [6] = assay: Neuroprotective activity against H2O2-induced neuronal damage in rat PC12 cells assessed as increase in cell viability pretreated for 1 hr followed by H2O2 addition measured after 24 hrs by MTT assay; format: functional, cell-based; details: dose <= 20.0 µM, time 25.0 hrs
# [7] = Half life in plasma of ICR mouse at 10 mg/kg, IG measured at 10 to 240 mins by LC-MS/MS analysis; format: ADME, organism-based; details: in vivo, po, time 10-240 min
# Mus musculus [8] = assay: Improvement of cognition in ICR mouse model of Amyloid beta(1 to 42)-induced cognitive impairment at 10 mg/kg, IG for 12 days by Moris water maze test; format: functional, organism-based; details: time 12.0 day
# [9] = Toxicity in ICR mouse model of Amyloid beta(1 to 42)-induced cognitive impairment assessed as body weight change at 10 mg/kg, IG for 12 days; format: organism-based; details: in vivo, po, 288 h, time 12 day
# BV-2 [10] = assay: Inhibition of ROS production in Amyloid beta(1 to 42)-induced neuronal damage in mouse BV-2 cells assessed as decrease in green fluorescence intensity at 5 uM by microscopic analysis; format: functional, cell-based
# [11] = Half life in brain of ICR mouse at 10 mg/kg, IG measured at 10 to 240 mins by LC-MS/MS analysis; format: ADME, organism-based; details: po, time 10-240 min
# Mus musculus [12] = assay: Anti-inflammatory activity in ICR mouse model assessed as reduction in brain TNF-alpha level at 10 mg/kg, IG pretreated for 10 days followed by LPS treatment for 4 days by ELISA; format: functional, organism-based; details: time 14.0 day
# BV-2 [13] = assay: Anti-inflammatory activity against mouse BV-2 cells assessed as decrease in LPS-induced IL-1beta level at 5 uM preincubated for 1 hr followed by LPS addition and incubated overnight by immunofluorescence based analysis; format: functional, cell-based
# [14] = Toxicity in ICR mouse assessed as body weight change administered orally for 14 days consecutively; details: in vivo, po, 336 h, time 14 day
# [15] = Drug concentration in brain of ICR mouse at 10 mg/kg, IG measured at about 22 mins by LC-MS/MS analysis; format: ADME, organism-based; details: po, read-out: Ct
# L02 = assay: Cytotoxicity against human L02 cells by MTT assay; format: toxicity, cell-based
# Mus musculus [16] = assay: Anti-inflammatory activity in ICR mouse model assessed as shorter platform latency at 10 mg/kg, IG pretreated for 10 days followed by LPS treatment for 4 days by Moris water maze test; format: functional, organism-based; details: time 14.0 day
# [17] = AUC (0 to infinity) in Sprague-Dawley rat at 10 mg/kg, iv measured for 2880 mins by LC-MS/MS analysis; format: ADME, organism-based; details: in vivo
# [18] = AUC (0 to t) in Sprague-Dawley rat at 10 mg/kg, IG measured for 2880 mins by LC-MS/MS analysis; format: ADME, organism-based; details: in vivo, po
# [19] = Cmax in brain of ICR mouse at 10 mg/kg, IG measured at 10 to 240 mins by LC-MS/MS analysis; format: ADME, organism-based; details: po, time 10-240 min
# [20] = Ratio of Cmax in brain to plasma of ICR mouse at 10 mg/kg, IG measured at 10 to 240 mins by LC-MS/MS analysis; format: ADME, organism-based; details: po, time 10-240 min
# [21] = Tmax in Sprague-Dawley rat at 10 mg/kg, iv measured for 2880 mins by LC-MS/MS analysis; format: ADME, organism-based; details: in vivo
# [22] = Tmax in plasma of ICR mouse at 10 mg/kg, IG measured at 10 to 240 mins by LC-MS/MS analysis; format: ADME, organism-based; details: in vivo, po, time 10-240 min
# [23] = AUC (0 to t) in Sprague-Dawley rat at 10 mg/kg, iv measured for 2880 mins by LC-MS/MS analysis; format: ADME, organism-based; details: in vivo
# [24] = MRT (infinity) in Sprague-Dawley rat at 10 mg/kg, iv measured for 2880 mins by LC-MS/MS analysis; format: ADME, organism-based; details: in vivo, 48 h
# [25] = Metabolic stability in human liver microsomes assessed as half life at 2 uM incubated for 60 mins by LC-MS/MS analysis; format: ADME, Microsome
# SH-SY5Y = assay: Neuroprotective activity against Amyloid beta(1 to 42)-induced neuronal damage in human SH-SY5Y cells assessed as increase in cell survival at 1 to 10 uM pretreated for 1 hr followed by Amyloid beta(1 to 42) addition measured after 24 hrs by MTT assay; format: functional, cell-based; details: dose 1-10 µM, time 25.0 hrs
# [26] = Tmax in brain of ICR mouse at 10 mg/kg, IG measured at 10 to 240 mins by LC-MS/MS analysis; format: ADME, organism-based; details: po, time 10-240 min
# BV-2 [27] = assay: Inhibition of ROS production in LPS-induced mouse BV-2 cells assessed as decrease in green fluorescence intensity at 2.5 to 10 uM pretreated for 1 hr followed by LPS addition and incubated overnight by DCFH-DA staining based analysis; format: functional, cell-based; details: dose 2.5-10 µM
# Mus musculus [28] = assay: Anti-inflammatory activity in ICR mouse model assessed as reduction in serum TNF-alpha level at 10 mg/kg, IG pretreated for 10 days followed by LPS treatment for 4 days by ELISA; format: functional, organism-based; details: time 14.0 day
# [29] = Oral bioavailability in Sprague-Dawley rat at 10 mg/kg, IG or 10 mg/kg, iv measured for 2880 mins by LC-MS/MS analysis; format: ADME, organism-based; details: in vivo
# [30] = AUC (0 to t) in brain of ICR mouse at 10 mg/kg, IG measured at 10 to 240 mins by LC-MS/MS analysis; format: ADME, organism-based; details: po, time 10-240 min
# [31] = Cmax in Sprague-Dawley rat at 10 mg/kg, iv measured for 2880 mins by LC-MS/MS analysis; format: ADME, organism-based; details: in vivo
# [32] = Neurotoxicity against human SH-SY5Y cells by MTT assay; format: toxicity, cell-based
# BV-2 [33] = assay: Anti-inflammatory activity against mouse BV-2 cells assessed as decrease in LPS-induced IL-6 level at 2 to 6 uM preincubated for 1 hr followed by LPS addition and incubated overnight by ELISA; format: functional, cell-based; details: dose 2-6 µM
# [34] = Cmax in Sprague-Dawley rat at 10 mg/kg, IG measured for 2880 mins by LC-MS/MS analysis; format: ADME, organism-based; details: in vivo, po
# [35] = Neurotoxicity against mouse BV-2 cells by MTT assay; format: toxicity, cell-based
# [36] = Toxicity in ICR mouse assessed as abnormal behaviour administered orally; details: in vivo, po
structure (smiles),measurement,setting,value
CCCc1ccc(C(=O)Nc2cnc3ccccc3c2N2CCN(Cc3ccccc3)CC2)cc1,Activity,Mus musculus [1],Active
same,Activity,PC-12 [2],>80%
same,Activity,Mus musculus [3],Active
same,EC50,[4],23.5 µM
same,Activity,Mus musculus [5],Active
same,Activity,PC-12 [6],Dose-Dependent Effect
same,t1/2,[7],65.38 min
same,Activity,Mus musculus [8],Active
same,Activity,[9],Non-Toxic
same,inhibition,BV-2 [10],Active
same,half-life,[11],95.8 min
same,Activity,Mus musculus [12],Active
same,Activity,BV-2 [13],Active
same,Activity,[14],Non-Toxic
same,concentration at 22 min,[15],554 ng/mL
same,Activity,L02,Non-Toxic
same,Activity,Mus musculus [16],Active
same,AUC(0-inf),[17],6070 ng·h/mL
same,AUC(0-t) at 48 h,[18],5650 ng·h/mL
same,Cmax,[19],554 ng/mL
same,Kp,[20],2.33
same,Tmax,[21],1 min
same,Tmax,[22],18 min
same,AUC(0-t) at 48 h,[23],6070 ng·h/mL
same,MRT,[24],987 min
same,half-life at 2 µM,[25],45.7 min
same,Activity,SH-SY5Y,Active
same,Tmax,[26],22 min
same,inhibition,BV-2 [27],Active
same,Activity,Mus musculus [28],Active
same,bioavailability,[29],92.3%
same,AUC(0-t),[30],38300 ng·h/mL
same,Cmax,[31],7120 ng/mL
same,Activity,[32],Not Active
same,Activity,BV-2 [33],Active
same,Cmax,[34],1380 ng/mL
same,Activity,[35],Not Active
same,Activity,[36],Non-Toxic
